Source: patent US10336792B2, “Antimicrobial peptide dendrimers” (priority 2014, dated 2019)
≈ marks a conversion by molar mass, not a printed value. Positions of bridges follow the written chain, without caps; N, C: chain ends. Non-standard residues stand in square brackets, D forms with d. Residues, ends and D or L forms follow the SMILES beside them. Groups on a side chain read outwards from the residue. Chains are numbered I, II in the order given. Dab = NCC[C@H](N)C(=O)O

Legend:
Format in all cases: cell-based
[1] = tested on: Pseudomonas aeruginosa (strain PA01); experiment: microbe, parasite or virus in culture; settings: strain
How it was run: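 Broth microdilution MIC against P. aeruginosa PAO1 in LB: peptides serially diluted by ⅔, bacteria added at OD600 0.001 and incubated 18–24 h at 37 °C. MTT added; MIC is the lowest concentration preventing visible growth.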

[2] = tested on: Bacillus subtilis (strain BR151); settings: strain BR151
How it was run: (§1)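 Broth microdilution MIC in LB; overnight cultures diluted to OD600 0.001 and mixed 1:1 with ⅔-serially diluted samples (stock 1 mg mL^−1 in H2O), 37° C for 18-24 h. MTT (0.1%) added; MIC read by eye as lowest concentration inhibiting visible growth (yellow).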

[3] = tested on: Escherichia coli (strain DH5α); settings: DH5α
How it was run: as §1

Row | MIC P. aeruginosa PAO1 [1] | MIC B. subtilis BR151 [2] | MIC E. coli DH5α [3] | Structure (SMILES)
1 | 3 µg/mL (≈ 0.729 µM) | 2 µg/mL (≈ 0.486 µM) | 2 µg/mL (≈ 0.486 µM) | CC(C)C[C@H](NC(=O)[C@H](CCN)NC(=O)[C@H](CCCCNC(=O)[C@H](CC(C)C)NC(=O)[C@H](CCN)NC(=O)[C@H](CCCCNC(=O)[C@H](CC(C)C)NC(=O)[C@H](CCN)NC(=O)[C@H](CCCCNC(=O)[C@H](CC(C)C)NC(=O)[C@@H](N)CCN)NC(=O)[C@H](CC(C)C)NC(=O)[C@@H](N)CCN)NC(=O)[C@H](CC(C)C)NC(=O)[C@H](CCN)NC(=O)[C@H](CCCCNC(=O)[C@H](CC(C)C)NC(=O)[C@@H](N)CCN)NC(=O)[C@H](CC(C)C)NC(=O)[C@@H](N)CCN)NC(=O)[C@H](CC(C)C)NC(=O)[C@H](CCN)NC(=O)[C@H](CCCCNC(=O)[C@H](CC(C)C)NC(=O)[C@H](CCN)NC(=O)[C@H](CCCCNC(=O)[C@H](CC(C)C)NC(=O)[C@@H](N)CCN)NC(=O)[C@H](CC(C)C)NC(=O)[C@@H](N)CCN)NC(=O)[C@H](CC(C)C)NC(=O)[C@H](CCN)NC(=O)[C@H](CCCCNC(=O)[C@H](CC(C)C)NC(=O)[C@@H](N)CCN)NC(=O)[C@H](CC(C)C)NC(=O)[C@@H](N)CCN)C(N)=O [MSt-200, (DabL)8(KDabL)4(KDabL)2(KDabL)] (I: H-[Dab]LK([Leu-Dab])[Dab]LK[Dab]LK[Dab]L-NH2 / II: H-[Dab]LK([Leu-Dab])[Dab]LK[Dab]L / III: H-[Dab]LK([Leu-Dab])[Dab]L / IV: H-[Dab]LK([Leu-Dab])[Dab]L; amide I:6-IV:C, I:9-II:C, II:6-III:C; N-terminus assumed)
2 | 2 µg/mL (≈ 0.447 µM) | 1 µg/mL (≈ 0.223 µM) | 1 µg/mL (≈ 0.223 µM) | CC(C)C[C@H](NC(=O)[C@H](CCN)NC(=O)[C@H](CCCCNC(=O)[C@H](Cc1c[nH]c2ccccc12)NC(=O)[C@H](CCN)NC(=O)[C@H](CCCCNC(=O)[C@H](CC(C)C)NC(=O)[C@@H](N)CCN)NC(=O)[C@H](CC(C)C)NC(=O)[C@@H](N)CCN)NC(=O)[C@H](Cc1c[nH]c2ccccc12)NC(=O)[C@H](CCN)NC(=O)[C@H](CCCCNC(=O)[C@H](CC(C)C)NC(=O)[C@@H](N)CCN)NC(=O)[C@H](CC(C)C)NC(=O)[C@@H](N)CCN)C(=O)NCCCC[C@H](NC(=O)[C@H](CC(C)C)NC(=O)[C@H](CCN)NC(=O)[C@H](CCCCNC(=O)[C@H](Cc1c[nH]c2ccccc12)NC(=O)[C@H](CCN)NC(=O)[C@H](CCCCNC(=O)[C@H](CC(C)C)NC(=O)[C@@H](N)CCN)NC(=O)[C@H](CC(C)C)NC(=O)[C@@H](N)CCN)NC(=O)[C@H](Cc1c[nH]c2ccccc12)NC(=O)[C@H](CCN)NC(=O)[C@H](CCCCNC(=O)[C@H](CC(C)C)NC(=O)[C@@H](N)CCN)NC(=O)[C@H](CC(C)C)NC(=O)[C@@H](N)CCN)C(=O)N[C@@H](CCN)C(=O)N[C@@H](Cc1c[nH]c2ccccc12)C(N)=O [MSt-202, (DabL)8(KDabW)4(KDabL)2(KDabW)] (I: H-[Dab]LK([Leu-Dab])[Dab]WK[Dab]LK[Dab]W-NH2 / II: H-[Dab]LK([Leu-Dab])[Dab]WK[Dab]L / III: H-[Dab]LK([Leu-Dab])[Dab]W / IV: H-[Dab]LK([Leu-Dab])[Dab]W; amide I:6-IV:C, I:9-II:C, II:6-III:C; N-terminus assumed)
3 | 2 µg/mL (≈ 0.462 µM) | 2 µg/mL (≈ 0.462 µM) | 2 µg/mL (≈ 0.462 µM) | CC(C)C[C@H](NC(=O)[C@H](CCN)NC(=O)[C@H](CCCCNC(=O)[C@H](CC(C)C)NC(=O)[C@@H](N)CCN)NC(=O)[C@H](CC(C)C)NC(=O)[C@@H](N)CCN)C(=O)NCCCC[C@H](NC(=O)[C@H](CC(C)C)NC(=O)[C@H](CCN)NC(=O)[C@H](CCCCNC(=O)[C@H](CC(C)C)NC(=O)[C@@H](N)CCN)NC(=O)[C@H](CC(C)C)NC(=O)[C@@H](N)CCN)C(=O)N[C@@H](CCN)C(=O)N[C@@H](Cc1c[nH]c2ccccc12)C(=O)NCCCC[C@H](NC(=O)[C@H](Cc1c[nH]c2ccccc12)NC(=O)[C@H](CCN)NC(=O)[C@H](CCCCNC(=O)[C@H](CC(C)C)NC(=O)[C@H](CCN)NC(=O)[C@H](CCCCNC(=O)[C@H](CC(C)C)NC(=O)[C@@H](N)CCN)NC(=O)[C@H](CC(C)C)NC(=O)[C@@H](N)CCN)NC(=O)[C@H](CC(C)C)NC(=O)[C@H](CCN)NC(=O)[C@H](CCCCNC(=O)[C@H](CC(C)C)NC(=O)[C@@H](N)CCN)NC(=O)[C@H](CC(C)C)NC(=O)[C@@H](N)CCN)C(=O)N[C@@H](CCN)C(=O)N[C@@H](Cc1c[nH]c2ccccc12)C(N)=O [MSt-203, (DabL)8(KDabL)4(KDabW)2(KDabW)] (I: H-[Dab]LK([Leu-Dab])[Dab]LK[Dab]WK[Dab]W-NH2 / II: H-[Dab]LK([Leu-Dab])[Dab]LK[Dab]W / III: H-[Dab]LK([Leu-Dab])[Dab]L / IV: H-[Dab]LK([Leu-Dab])[Dab]L; amide I:6-IV:C, I:9-II:C, II:6-III:C; N-terminus assumed)

Continued, compound first:

Row | Structure (SMILES) | MIC P. aeruginosa PAO1 [1] | MIC B. subtilis BR151 [2] | MIC E. coli DH5α [3]
4 | NCCCC[C@H](NC(=O)[C@H](CCCCNC(=O)[C@H](Cc1ccccc1)NC(=O)[C@H](CCCCN)NC(=O)[C@H](CCCCNC(=O)[C@H](Cc1ccccc1)NC(=O)[C@H](CCCCN)NC(=O)[C@H](CCCCNC(=O)[C@H](Cc1ccccc1)NC(=O)[C@@H](N)CCCCN)NC(=O)[C@H](Cc1ccccc1)NC(=O)[C@@H](N)CCCCN)NC(=O)[C@H](Cc1ccccc1)NC(=O)[C@H](CCCCN)NC(=O)[C@H](CCCCNC(=O)[C@H](Cc1ccccc1)NC(=O)[C@@H](N)CCCCN)NC(=O)[C@H](Cc1ccccc1)NC(=O)[C@@H](N)CCCCN)NC(=O)[C@H](Cc1ccccc1)NC(=O)[C@H](CCCCN)NC(=O)[C@H](CCCCNC(=O)[C@H](Cc1ccccc1)NC(=O)[C@H](CCCCN)NC(=O)[C@H](CCCCNC(=O)[C@H](Cc1ccccc1)NC(=O)[C@@H](N)CCCCN)NC(=O)[C@H](Cc1ccccc1)NC(=O)[C@@H](N)CCCCN)NC(=O)[C@H](Cc1ccccc1)NC(=O)[C@H](CCCCN)NC(=O)[C@H](CCCCNC(=O)[C@H](Cc1ccccc1)NC(=O)[C@@H](N)CCCCN)NC(=O)[C@H](Cc1ccccc1)NC(=O)[C@@H](N)CCCCN)C(=O)N[C@@H](Cc1ccccc1)C(N)=O [MSt-174, (KF)8(KKF)4(KKF)2(KKF)] (I: H-KFK([Phe-Lys])KFKKFKKF-NH2 / II: H-KFK([Phe-Lys])KFKKF / III: H-KFK([Phe-Lys])KF / IV: H-KFK([Phe-Lys])KF; amide I:6-IV:C, I:9-II:C, II:6-III:C) | 6 µg/mL (≈ 1.19 µM) | 2 µg/mL (≈ 0.396 µM) | 7 µg/mL (≈ 1.39 µM)
5 | CC(C)C[C@H](NC(=O)[C@H](CC(C)C)NC(=O)[C@H](CCCCNC(=O)[C@H](CCCCN)NC(=O)[C@H](CCCCN)NC(=O)[C@H](CCCCNC(=O)[C@H](CC(C)C)NC(=O)[C@@H](N)CC(C)C)NC(=O)[C@H](CC(C)C)NC(=O)[C@@H](N)CC(C)C)NC(=O)[C@H](CCCCN)NC(=O)[C@H](CCCCN)NC(=O)[C@H](CCCCNC(=O)[C@H](CC(C)C)NC(=O)[C@@H](N)CC(C)C)NC(=O)[C@H](CC(C)C)NC(=O)[C@@H](N)CC(C)C)C(=O)NCCCC[C@H](NC(=O)[C@H](CC(C)C)NC(=O)[C@H](CC(C)C)NC(=O)[C@H](CCCCNC(=O)[C@H](CCCCN)NC(=O)[C@H](CCCCN)NC(=O)[C@H](CCCCNC(=O)[C@H](CC(C)C)NC(=O)[C@@H](N)CC(C)C)NC(=O)[C@H](CC(C)C)NC(=O)[C@@H](N)CC(C)C)NC(=O)[C@H](CCCCN)NC(=O)[C@H](CCCCN)NC(=O)[C@H](CCCCNC(=O)[C@H](CC(C)C)NC(=O)[C@@H](N)CC(C)C)NC(=O)[C@H](CC(C)C)NC(=O)[C@@H](N)CC(C)C)C(=O)N[C@@H](CCCCN)C(=O)N[C@@H](CCCCN)C(N)=O [MSt-180, (LL)8(KKK)4(KLL)2(KKK)] (I: H-LLK([Leu-Leu])KKKLLKKK-NH2 / II: H-LLK([Leu-Leu])KKKLL / III: H-LLK([Leu-Leu])KK / IV: H-LLK([Leu-Leu])KK; amide I:6-IV:C, I:9-II:C, II:6-III:C) | 12 µg/mL (≈ 2.69 µM) | 3 µg/mL (≈ 0.673 µM) | >62 µg/mL
6 | CC(C)C[C@H](NC(=O)[C@@H](N)CCN)C(=O)NCCCC[C@H](NC(=O)[C@H](CC(C)C)NC(=O)[C@@H](N)CCN)C(=O)N[C@@H](CCN)C(=O)N[C@@H](Cc1c[nH]c2ccccc12)C(=O)NCCCC[C@H](NC(=O)[C@H](Cc1c[nH]c2ccccc12)NC(=O)[C@H](CCN)NC(=O)[C@H](CCCCNC(=O)[C@H](CC(C)C)NC(=O)[C@@H](N)CCN)NC(=O)[C@H](CC(C)C)NC(=O)[C@@H](N)CCN)C(=O)N[C@@H](CCN)C(=O)N[C@@H](Cc1c[nH]c2ccccc12)C(=O)NCCCC[C@H](NC(=O)[C@H](Cc1c[nH]c2ccccc12)NC(=O)[C@H](CCN)NC(=O)[C@H](CCCCNC(=O)[C@H](Cc1c[nH]c2ccccc12)NC(=O)[C@H](CCN)NC(=O)[C@H](CCCCNC(=O)[C@H](CC(C)C)NC(=O)[C@@H](N)CCN)NC(=O)[C@H](CC(C)C)NC(=O)[C@@H](N)CCN)NC(=O)[C@H](Cc1c[nH]c2ccccc12)NC(=O)[C@H](CCN)NC(=O)[C@H](CCCCNC(=O)[C@H](CC(C)C)NC(=O)[C@@H](N)CCN)NC(=O)[C@H](CC(C)C)NC(=O)[C@@H](N)CCN)C(=O)N[C@@H](CCN)C(=O)N[C@@H](C)C(N)=O [MSt-205, (DabL)8(KDabW)4(KDabW)2(KDabA)] (I: H-[Dab]LK([Leu-Dab])[Dab]WK[Dab]WK[Dab]A-NH2 / II: H-[Dab]LK([Leu-Dab])[Dab]WK[Dab]W / III: H-[Dab]LK([Leu-Dab])[Dab]W / IV: H-[Dab]LK([Leu-Dab])[Dab]W; amide I:6-IV:C, I:9-II:C, II:6-III:C; N-terminus assumed) | 3 µg/mL (≈ 0.665 µM) | 2 µg/mL (≈ 0.443 µM) | 2 µg/mL (≈ 0.443 µM)
